Test results reported in patent EP0293146A1, “Benzofuro [3,2-c] quinoline compounds” (Kissei Pharmaceutical Co Ltd, priority 1987, dated 1988).

Columns and labels:
[1] = system: Femur was isolated from 10- to 11-day chick embryo; conditions: 100 µM
Experimental: Inhibitory effect of various compounds on bone resorption was tested according to the method described in "Advanced Tissue Cultures For In Vitro Assay And Production" (pages 111-114, edited by Isao Yamane & Hiroyoshi Endo, Published by SOFT SCIENCE, Inc. Tokyo).
Femur was isolated from 10- to 11-day chick embryo. After cleaned from adherent soft tissues, the preparation was precultivated in 1 ml of BGJb-HW2 culture medium containing benzofuro[3,2-c]quinoline derivatives of the present invention at 37° C for 24 hours using the roller-tube method. Tested compounds were dissolved in dimethylsulfoxide at a concentration of 0.1 M and the solution was diluted with the culture medium to make a final concentration of 10-^4 M of those compounds. In the case of control group, the same volume of dimethylsulfoxide was added.
On the next day, the precultivated femur was further cultivated for 2 hours at 37° C in 1 ml of fresh culture medium containing 1 µCi/ml of ^45CaCl2 to label the bone mineral with ^45Ca. Then, the cultivated bone was rinsed with a phosphate-buffered saline warmed at 37' C to remove ^45Ca adhered to the bone. ^45Ca-Labelled bone was again cultivated using the roller-tube method (10 revolutions/hr), and the radioactivity of ^45Ca in an aliquot of the culture medium was determined by liquid scintillation counter at a point of 12, 24, 48 and 72 hours, respectively. The culture medium was freshed at each determination of the radioactivity. After completion of the cultivation, the bone was immersed in 1 ml of 1 N HCI for 24 hours to elute all calcium in the bone, and the remaining radioactivity in the bone was determined.
From the obtained data, the rate of remaining radioactivity of the bone to the initial radioactivity of the bone was measured at each observation. Then the eluting rate of bone mineral by osteoclasts was obtained by linear-regression of decay curve for the rate of remaining radioactivity in the bone after 24 to 72 hours of the cultivation, and turnover rate of calcium in the bone mineral accumulated in the cultivated bone was estimated as biological half-life (T1/2).
The potency of the inhibition of presented compounds was calculated by the following equation using T1/2.

[2] = system: Femur was isolated from 9-day chick embryo; assay: Stimulatory effect on ossification (femur organ culture, calcium content); format: cell-based; conditions: 10-^5 M; cultivated for 6 days; eluted calcium versus paired control femur; mean value of 6 observations
Experimental: Stimulatory effect of various compounds on ossification was tested according to the method described in "Advanced Tissue Cultures For In Vitro Assay And Production" (pages 111-114, edited by Isao Yamane & Hiroyoshi Endo, Published by SOFT SCIENCE, Inc. Tokyo).
Femur was isolated from 9-day chick embryo. After cleaned from adherent soft tissues, one femur of a paired femur was used for a test of compound of the present invention, and the other femur was used as control group. One preparation was placed directly on the inner surface of a glass roller-tube, and 2 ml of BGJb-HW2 culture medium was added to each tube. Each preparation was cultivated at 37° C by the roller-tube method (10 revolutions/hr) for 6 days. During the cultivation, femur length was measured, and the culture medium was freshed every other day. Tested compounds were dissolved in dimethylsulfoxide at a concentration of 0.01 M and the solution was diluted by the culture medium to make a final concentraiton of 10-^5 M of those compounds. In the case of control group, the same volume of dimethylsulfoxide was added.
After completion of the cultivation, the bone was immersed in 1 N HCI for 24 hours to elute all calcium in the bone, and the eluted calcium was determined by chelating method using orthocresolphthalein.
The potency of the stimulatory effect on ossification of presented compounds was calculated by the following equation. [formula]
The results are shown in the following table as the mean value of 6 observations.

[3] = system: femur of rats loaded low calcium diets; assay: Effect on calcium and phosphorus contents in femur of rats loaded low calcium diets; format: in vivo, male Wistar rats; conditions: 300 mg/kg orally once a day for 2 weeks, mean±standard error of the mean of 10 observations
Experimental: Twenty male Wistar rats of 3 weeks age were divided into 2 groups. All animals were raised with low calcium diets. Test compound, 3,9-dihydroxy-5H-benzofuro [3,2-c]quinolin-6-one (compound 2) suspended in 0.5% sodium carboxymethyl cellulose solution (CMC) was orally administered to 1 group at a dose of 300 mg/kg once a day for 2 weeks. Another group recieved the same volume of CMC. After completion of the experiment, calcium and phosphorus contents in the femur were determined.
The results were shown in the following table as mean±standard error of the mean of 10 observations.

Compound: O=c1[nH]c2cc(O)ccc2c2oc3ccccc3c12 [Compound 1, 3-Hydroxy-5H-benzofuro[3,2-c]quinolin-6-one]
- Inhibitory potency on bone resorption [1]: 1.24

Compound: O=c1[nH]c2cc(O)ccc2c2oc3cc(O)ccc3c12 [Compound 2, 3,9-Dihydroxy-5H-benzofuro[3,2-c]quinolin-6-one]
- Stimulatory potency on ossification [2]: 1.11
- Inhibitory potency on bone resorption [1]: 1.97
- Amount of calcium (mg/femur) [3]: 8.1±0.50 mg/femur
- Amount of phosphorus (mg/femur) [3]: 5.1±0.26 mg/femur

Compound: O=c1[nH]c2cc(O)ccc2c2oc3ccc(O)cc3c12 [Compound 3, 3,8-Dihydroxy-5H-benzofuro[3,2-c]quinolin-6-one]
- Inhibitory potency on bone resorption [1]: 2.52

Compound: CC(C)Oc1ccc2c(c1)[nH]c(=O)c1c3ccccc3oc21 [Compound 4, 3-Isopropoxy-5H-benzofuro[3,2-c]quinolin-6-one]
- Inhibitory potency on bone resorption [1]: 1.16

Compound: O=c1[nH]c2cc(OCCCO)ccc2c2oc3ccccc3c12 [Compound 5, 3-(3-Hydroxypropoxy)-5H-benzofuro[3,2-c]quinolin-6-one]
- Inhibitory potency on bone resorption [1]: 1.26

Compound: CCOC(=O)C(C)Oc1ccc2c(c1)[nH]c(=O)c1c3ccccc3oc21 (stereo not drawn) [Compound 6, 3-(1-Ethoxycarbonylethoxy)-5H-benzofuro[3,2-c]quinolin-6-one]
- Inhibitory potency on bone resorption [1]: 1.10

Compound: CC(Oc1ccc2c(c1)[nH]c(=O)c1c3ccccc3oc21)C(=O)O (stereo not drawn) [Compound 7, 3-(1-Carboxyethoxy)-5H-benzofuro[3,2-c]quinolin-6-one]
- Inhibitory potency on bone resorption [1]: 1.10

Compound: CC(C)Oc1ccc2c(c1)[nH]c(=O)c1c3ccc(OC(C)C)cc3oc21 [Compound 8, 3,9-Diisopropoxy-5H-benzofuro[3,2-c]quinolin-6-one]
- Inhibitory potency on bone resorption [1]: 1.24

Compound: CC(C)Oc1ccc2c(c1)[nH]c(=O)c1c3ccc(O)cc3oc21 [Compound 9, 9-Hydroxy-3-isopropoxy-5H-benzofuro[3,2-c]quinolin-6-one]
- Stimulatory potency on ossification [2]: 1.08
- Inhibitory potency on bone resorption [1]: 2.89

Compound: O=c1[nH]c2cc(OCCCO)ccc2c2oc3cc(OCCCO)ccc3c12 [Compound 10, 3,9-Bis(3-hydroxypropoxy)-5H-benzofuro[3,2-c]quinolin-6-one]
- Inhibitory potency on bone resorption [1]: 1.40

Compound: O=c1[nH]c2cc(OCCCO)ccc2c2oc3cc(O)ccc3c12 [Compound 11, 9-Hydroxy-3-(3-hydroxypropoxy)-5H-benzofuro[3,2-c]quinolin-6-one]
- Stimulatory potency on ossification [2]: 1.14
- Inhibitory potency on bone resorption [1]: 2.89

Compound: CCOC(=O)C(C)Oc1ccc2c(c1)[nH]c(=O)c1c3ccc(OC(C)C(=O)OCC)cc3oc21 (stereo not drawn) [Compound 12, 3,9-Bis(1-ethoxycarbonylethoxy)-5H-benzofuro[3,2-c]quinolin-6-one]
- Inhibitory potency on bone resorption [1]: 1.16

Compound: COc1ccc2c(c1)[nH]c(=O)c1c3ccc(OC)cc3oc21 [Compound 13, 3,9-Dimethoxy-5H-benzofuro[3,2-c]quinolin-6-one]
- Inhibitory potency on bone resorption [1]: 1.04
